Test system: 876862-298-R-J1-PDC complex spheroids, viability % test/control
Test: Anticancer human tumor 876862-298-R-J1-PDC patient-derived endometrial carcinoma cell line growth inhibition [CLK]
Conditions: for IC50: curve of first compound; for viability, T/C: stronger effect = lower value
How it was run: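 Multi-cell-type spheroids combined patient-derived tumor cells with HUVEC endothelial cells and human mesenchymal stem cells. Paired agents were dosed in half-log steps down from about clinical Cmax, or from 10 microM where Cmax was unknown.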

[1] = second compound 0.0316 µM, first compound 0.0316 µM
[2] = second compound 0.0316 µM, first compound 0.1 µM
[3] = second compound 0.0316 µM, first compound 0.316 µM
[4] = second compound 0.0316 µM, first compound 1 µM
[5] = second compound 0.0316 µM, first compound 3.16 µM
[6] = second compound 0.0316 µM, first compound 10 µM
[7] = second compound 0.1 µM, first compound 0.0316 µM
[8] = second compound 0.1 µM, first compound 0.1 µM
[9] = second compound 0.1 µM, first compound 0.316 µM
[10] = second compound 0.1 µM, first compound 1 µM
[11] = second compound 0.1 µM, first compound 3.16 µM
[12] = second compound 0.1 µM, first compound 10 µM
[13] = second compound 0.316 µM, first compound 0.0316 µM
[14] = second compound 0.316 µM, first compound 0.1 µM
[15] = second compound 0.316 µM, first compound 0.316 µM
[16] = second compound 0.316 µM, first compound 1 µM
[17] = second compound 0.316 µM, first compound 3.16 µM
[18] = second compound 0.316 µM, first compound 10 µM
[19] = second compound 1 µM, first compound 0.0316 µM
[20] = second compound 1 µM, first compound 0.1 µM
[21] = second compound 1 µM, first compound 0.316 µM
[22] = second compound 1 µM, first compound 1 µM
[23] = second compound 1 µM, first compound 3.16 µM
[24] = second compound 1 µM, first compound 10 µM
[25] = second compound 3.16 µM, first compound 0.0316 µM
[26] = second compound 3.16 µM, first compound 0.1 µM
[27] = second compound 3.16 µM, first compound 0.316 µM
[28] = second compound 3.16 µM, first compound 1 µM
[29] = second compound 3.16 µM, first compound 3.16 µM
[30] = second compound 3.16 µM, first compound 10 µM
[31] = second compound 10 µM, first compound 0.0316 µM
[32] = second compound 10 µM, first compound 0.1 µM
[33] = second compound 10 µM, first compound 0.316 µM
[34] = second compound 10 µM, first compound 1 µM
[35] = second compound 10 µM, first compound 3.16 µM
[36] = second compound 10 µM, first compound 10 µM
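Note: spheroids exposed to drugs for 7 days before readout.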
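Throughout, for viability, T/C: 100% = DMSO vehicle control wells.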

CC(=O)O[C@H]1C(=O)[C@@]2(C)[C@H]([C@H](OC(=O)c3ccccc3)[C@]3(O)C[C@H](OC(=O)[C@H](O)[C@@H](NC(=O)c4ccccc4)c4ccccc4)C(C)=C1C3(C)C)[C@]1(OC(C)=O)CO[C@@H]1C[C@@H]2O + CNC(=O)c1ccc(Nc2nc(OC3CCCC3)c3c(-c4ccc5nc(C)oc5c4)c[nH]c3n2)c(OC)c1
IC50 (second compound 0.0316 µM): < 0.0316 µM
IC50 (second compound 0.1 µM): < 0.0316 µM
IC50 (second compound 0.316 µM): < 0.0316 µM
IC50 (second compound 1 µM): < 0.0316 µM
IC50 (second compound 3.16 µM): < 0.0316 µM
IC50 (second compound 10 µM): < 0.0316 µM
viability, T/C [1]: 32.5%
viability, T/C [2]: 37.6%
viability, T/C [3]: 37.8%
viability, T/C [4]: 36.5%
viability, T/C [5]: 37.3%
viability, T/C [6]: 43.6%
viability, T/C [7]: 51.2%
viability, T/C [8]: 45.7%
viability, T/C [9]: 45.6%
viability, T/C [10]: 42.8%
viability, T/C [11]: 49.8%
viability, T/C [12]: 50.9%
viability, T/C [13]: 41.5%
viability, T/C [14]: 45.6%
viability, T/C [15]: 43.8%
viability, T/C [16]: 41.4%
viability, T/C [17]: 47.8%
viability, T/C [18]: 45.9%
viability, T/C [19]: 32.2%
viability, T/C [20]: 31%
viability, T/C [21]: 33.2%
viability, T/C [22]: 35.4%
viability, T/C [23]: 36%
viability, T/C [24]: 40.8%
viability, T/C [25]: 23.1%
viability, T/C [26]: 22.9%
viability, T/C [27]: 24.7%
viability, T/C [28]: 26.6%
viability, T/C [29]: 30.4%
viability, T/C [30]: 33.6%
viability, T/C [31]: 21.6%
viability, T/C [32]: 21%
viability, T/C [33]: 23.4%
viability, T/C [34]: 26.1%
viability, T/C [35]: 25.3%
viability, T/C [36]: 30%

CCc1c2c(nc3ccc(O)cc13)-c1cc3c(c(=O)n1C2)COC(=O)[C@]3(O)CC + CNC(=O)c1ccc(Nc2nc(OC3CCCC3)c3c(-c4ccc5nc(C)oc5c4)c[nH]c3n2)c(OC)c1
IC50 (second compound 0.0316 µM): < 0.00316 µM
IC50 (second compound 0.1 µM): < 0.00316 µM
IC50 (second compound 0.316 µM): < 0.00316 µM
IC50 (second compound 1 µM): < 0.00316 µM
IC50 (second compound 3.16 µM): < 0.00316 µM
IC50 (second compound 10 µM): < 0.00316 µM
viability, T/C (second compound 0.0316 µM, first compound 0.00316 µM): 24%
viability, T/C (second compound 0.0316 µM, first compound 0.01 µM): 9.43%
viability, T/C [1]: 8.16%
viability, T/C [2]: 5.8%
viability, T/C [3]: 5.07%
viability, T/C [4]: 3.65%
viability, T/C (second compound 0.1 µM, first compound 0.00316 µM): 16.5%
viability, T/C (second compound 0.1 µM, first compound 0.01 µM): 7.94%
viability, T/C [7]: 7.35%
viability, T/C [8]: 4.4%
viability, T/C [9]: 4.15%
viability, T/C [10]: 3.49%
viability, T/C (second compound 0.316 µM, first compound 0.00316 µM): 14.8%
viability, T/C (second compound 0.316 µM, first compound 0.01 µM): 6.28%
viability, T/C [13]: 5.77%
viability, T/C [14]: 4.17%
viability, T/C [15]: 4.42%
viability, T/C [16]: 3.57%
viability, T/C (second compound 1 µM, first compound 0.00316 µM): 9.55%
viability, T/C (second compound 1 µM, first compound 0.01 µM): 5.23%
viability, T/C [19]: 4.77%
viability, T/C [20]: 4.25%
viability, T/C [21]: 3.64%
viability, T/C [22]: 2.78%
viability, T/C (second compound 3.16 µM, first compound 0.00316 µM): 7.99%
viability, T/C (second compound 3.16 µM, first compound 0.01 µM): 5.52%
viability, T/C [25]: 4.06%
viability, T/C [26]: 4.3%
viability, T/C [27]: 3.4%
viability, T/C [28]: 2.05%
viability, T/C (second compound 10 µM, first compound 0.00316 µM): 6.88%
viability, T/C (second compound 10 µM, first compound 0.01 µM): 4.97%
viability, T/C [31]: 5.13%
viability, T/C [32]: 4.85%
viability, T/C [33]: 3.25%
viability, T/C [34]: 1.96%

COc1cccc2c1C(=O)c1c(O)c3c(c(O)c1C2=O)CC(O)(C(=O)CO)CC3OC1CC(N)C(O)C(C)O1 (stereo unspecified) + CNC(=O)c1ccc(Nc2nc(OC3CCCC3)c3c(-c4ccc5nc(C)oc5c4)c[nH]c3n2)c(OC)c1
IC50 (second compound 0.0316 µM): < 0.0316 µM
IC50 (second compound 0.1 µM): < 0.0316 µM
IC50 (second compound 0.316 µM): < 0.0316 µM
IC50 (second compound 1 µM): < 0.0316 µM
IC50 (second compound 3.16 µM): < 0.0316 µM
IC50 (second compound 10 µM): < 0.0316 µM
viability, T/C [1]: 27.4%
viability, T/C [2]: 11.2%
viability, T/C [3]: 6.58%
viability, T/C [4]: 5.25%
viability, T/C [5]: 0.7%
viability, T/C [6]: 4.06%
viability, T/C [7]: 22.3%
viability, T/C [8]: 10.5%
viability, T/C [9]: 6.67%
viability, T/C [10]: 4.08%
viability, T/C [11]: 0.67%
viability, T/C [12]: 3.82%
viability, T/C [13]: 21.7%
viability, T/C [14]: 7.88%
viability, T/C [15]: 5.6%
viability, T/C [16]: 2.96%
viability, T/C [17]: 0.81%
viability, T/C [18]: 4.75%
viability, T/C [19]: 15.3%
viability, T/C [20]: 5.96%
viability, T/C [21]: 4.62%
viability, T/C [22]: 2.24%
viability, T/C [23]: 1.51%
viability, T/C [24]: 5.96%
viability, T/C [25]: 13%
viability, T/C [26]: 6.62%
viability, T/C [27]: 3.35%
viability, T/C [28]: 1.57%
viability, T/C [29]: 1.6%
viability, T/C [30]: 6.55%
viability, T/C [31]: 12.1%
viability, T/C [32]: 5.47%
viability, T/C [33]: 3.35%
viability, T/C [34]: 1.56%
viability, T/C [35]: 2.15%
viability, T/C [36]: 7.11%

Reference: PubChem BioAssay AID2060607 (Molecular Pharmacology Branch, DTP, NCI, 2025)
